According to PubChem BioAssay AID328 (DTP/NCI, 2004):
Where “and” joins values, the source holds several entries; their conditions need not be identical. Equal entries are not always repeated. Toxic doses and inconclusive results are not listed.

System: BDF1 mice, P388 leukemia ip, median survival T/C
Experiment: NCI In Vivo Anticancer Drug Screen. Data for tumor model P388 Leukemia (intraperitoneal) in B6D2F1 (BDF1) mice
Details: endpoint: median survival time, higher = longer survival
Procedure, shortened: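 Mice carrying the transplantable tumour receive compound or vehicle. Survival is followed in each arm, and the treated measure is divided by the vehicle measure.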

[1] = dose: 50.0 mg/kg/injection, schedule: Q04DX003 (ip), vehicle: saline
[2] = dose: 4.0 mg/kg/injection, schedule: Q01DX009 (ip), vehicle: saline with Tween-80
[3] = dose: 100.0 mg/kg/injection, schedule: Q01DX009 (ip), vehicle: Klucel (hydroxypropylcellulose) (HPC)
[4] = dose: 200.0 mg/kg/injection, schedule: Q01DX009 (ip), vehicle: Klucel (hydroxypropylcellulose) (HPC)
[5] = dose: 50.0 mg/kg/injection, schedule: Q01DX009 (ip), vehicle: saline
[6] = dose: 100.0 mg/kg/injection, schedule: Q01DX009 (ip), vehicle: saline
[7] = dose: 200.0 mg/kg/injection, schedule: Q01DX009 (ip), vehicle: saline

## CC1(C)N=C(N)N=C(N)N1c1ccc(OCCCOc2ccc(S(=O)(=O)F)cc2)c(Cl)c1
dose: 0.66 mg/kg/injection, schedule: Q01DX009 (ip), vehicle: saline
  T/C: 108 % of control
dose: 0.99 mg/kg/injection, schedule: Q01DX009 (ip), vehicle: saline
  T/C: 104 % of control
dose: 12.5 mg/kg/injection, schedule: Q01DX009 (ip), vehicle: saline
  T/C: 165 % of control
dose: 25.0 mg/kg/injection, schedule: Q01DX009 (ip), vehicle: saline
  T/C: 115 % of control
dose: 33.0 mg/kg/injection, schedule: Q04DX003 (ip), vehicle: saline
  T/C: 109 % of control and 120 % of control
[1]
  T/C: 114 % of control and 120 % of control
dose: 75.0 mg/kg/injection, schedule: Q04DX003 (ip), vehicle: saline
  T/C: 114 % of control

## CCOC(=O)C1CC(=O)c2ccccc2C1 (stereo not given)
dose: 12.5 mg/kg/injection, schedule: Q01DX009 (ip), vehicle: other
  T/C: 87 % of control
dose: 100.0 mg/kg/injection, schedule: Q01DX009 (ip), vehicle: other
  T/C: 96 % of control
dose: 200.0 mg/kg/injection, schedule: Q01DX009 (ip), vehicle: other
  T/C: 110 % of control

## O=C[C@@H](CO)O[C@H](C=O)n1cnc2c(=O)[nH]cnc21
dose: 108.0 mg/kg/injection, schedule: Q04DX003 (ip), vehicle: water
  T/C: 170 % of control
dose: 180.0 mg/kg/injection, schedule: Q04DX003 (ip), vehicle: water
  T/C: 179 % of control and 184 % of control
dose: 300.0 mg/kg/injection, schedule: Q04DX003 (ip), vehicle: water
  T/C: 227 % of control and 247 % of control

## O=C(NCCc1ccccc1)Nc1ccccc1
dose: 75.0 mg/kg/injection, schedule: Q01DX009 (ip), vehicle: saline with Tween-80
  T/C: 95 % of control
dose: 150.0 mg/kg/injection, schedule: Q01DX009 (ip), vehicle: saline with Tween-80
  T/C: 104 % of control
dose: 300.0 mg/kg/injection, schedule: Q01DX009 (ip), vehicle: saline with Tween-80
  T/C: 109 % of control

## COc1cc(NS(C)(=O)=O)ccc1Nc1c2ccc([N+](=O)[O-])cc2nc2c(C)c(C)ccc12
dose: 0.29 mg/kg/injection, schedule: Q04DX003 (ip), vehicle: saline with Tween-80
  T/C: 112 % of control
dose: 0.44 mg/kg/injection, schedule: Q04DX003 (ip), vehicle: saline with Tween-80
  T/C: 154 % of control
dose: 0.88 mg/kg/injection, schedule: Q01DX009 (ip), vehicle: saline with Tween-80
  T/C: 185 % of control
dose: 1.0 mg/kg/injection, schedule: Q04DX003 (ip), vehicle: saline with Tween-80
  T/C: 154 % of control
dose: 1.33 mg/kg/injection, schedule: Q01DX009 (ip), vehicle: saline with Tween-80
  T/C: 203 % of control
dose: 2.0 mg/kg/injection, schedule: Q01DX009 (ip), vehicle: saline with Tween-80
  T/C: 254 % of control
dose: 2.66 mg/kg/injection, schedule: Q01DX009 (ip), vehicle: saline with Tween-80
  T/C: 269 % of control
dose: 3.0 mg/kg/injection, schedule: Q01DX009 (ip), vehicle: saline with Tween-80
  T/C: 273 % of control
[2]
  T/C: 272 % of control
dose: 6.0 mg/kg/injection, schedule: Q01DX009 (ip), vehicle: saline with Tween-80
  T/C: 211 % of control
dose: 9.0 mg/kg/injection, schedule: Q01DX009 (ip), vehicle: saline with Tween-80
  T/C: 295 % of control
dose: 22.0 mg/kg/injection, schedule: Q04DX003 (ip), vehicle: saline with Tween-80
  T/C: 236 % of control and 281 % of control
dose: 25.0 mg/kg/injection, schedule: Q04DX003 (ip), vehicle: saline
  T/C: 260 % of control
dose: 33.0 mg/kg/injection, schedule: Q04DX003 (ip), vehicle: saline with Tween-80
  T/C: 272 % of control and 281 % of control
dose: 50.0 mg/kg/injection, schedule: Q04DX003 (ip), vehicle: saline with Tween-80
  T/C: 272 % of control and 281 % of control
[1]
  T/C: 230 % of control
dose: 75.0 mg/kg/injection, schedule: Q04DX003 (ip), vehicle: saline with Tween-80
  T/C: 272 % of control and 122 % of control
dose: 100.0 mg/kg/injection, schedule: Q04DX003 (ip), vehicle: saline
  T/C: 95 % of control

## COc1ccc(/C=C/C(=O)c2ccccc2)cc1OC
dose: 37.5 mg/kg/injection, schedule: Q01DX009 (ip), vehicle: Klucel (hydroxypropylcellulose) (HPC)
  T/C: 117 % of control
dose: 50.0 mg/kg/injection, schedule: Q01DX009 (ip), vehicle: water
  T/C: 92 % of control
dose: 75.0 mg/kg/injection, schedule: Q01DX009 (ip), vehicle: Klucel (hydroxypropylcellulose) (HPC)
  T/C: 111 % of control
dose: 100.0 mg/kg/injection, schedule: Q01DX006 (ip), vehicle: water
  T/C: 115 % of control
[3]
  T/C: 105 % of control
dose: 100.0 mg/kg/injection, schedule: Q01DX009 (ip), vehicle: water
  T/C: 115 % of control
dose: 100.0 mg/kg/injection, schedule: Q04DX003 (ip), vehicle: Klucel (hydroxypropylcellulose) (HPC)
  T/C: 113 % of control
dose: 100.0 mg/kg/injection, schedule: Q04DX003 (ip), vehicle: water
  T/C: 86 % of control
dose: 150.0 mg/kg/injection, schedule: Q01DX009 (ip), vehicle: Klucel (hydroxypropylcellulose) (HPC)
  T/C: 105 % of control
dose: 200.0 mg/kg/injection, schedule: Q01DX006 (ip), vehicle: water
  T/C: 108 % of control
[4]
  T/C: 100 % of control
dose: 200.0 mg/kg/injection, schedule: Q04DX003 (ip), vehicle: Klucel (hydroxypropylcellulose) (HPC)
  T/C: 90 % of control
dose: 200.0 mg/kg/injection, schedule: Q04DX003 (ip), vehicle: water
  T/C: 100 % of control
dose: 300.0 mg/kg/injection, schedule: Q01DX009 (ip), vehicle: Klucel (hydroxypropylcellulose) (HPC)
  T/C: 107 % of control and 111 % of control
dose: 400.0 mg/kg/injection, schedule: Q01DX006 (ip), vehicle: water
  T/C: 150 % of control
dose: 400.0 mg/kg/injection, schedule: Q01DX009 (ip), vehicle: Klucel (hydroxypropylcellulose) (HPC)
  T/C: 109 % of control and 115 % of control
dose: 400.0 mg/kg/injection, schedule: Q01DX009 (ip), vehicle: water
  T/C: 124 % of control
dose: 400.0 mg/kg/injection, schedule: Q04DX003 (ip), vehicle: Klucel (hydroxypropylcellulose) (HPC)
  T/C: 100 % of control
dose: 400.0 mg/kg/injection, schedule: Q04DX003 (ip), vehicle: water
  T/C: 98 % of control
dose: 500.0 mg/kg/injection, schedule: Q01DX006 (ip), vehicle: water
  T/C: 161 % of control
dose: 500.0 mg/kg/injection, schedule: Q01DX009 (ip), vehicle: Klucel (hydroxypropylcellulose) (HPC)
  T/C: 100 % of control

## O=[N+]([O-])c1[nH]cnc1Br
dose: 25.0 mg/kg/injection, schedule: Q01DX009 (ip), vehicle: Klucel (hydroxypropylcellulose) (HPC)
  T/C: 93 % of control
dose: 50.0 mg/kg/injection, schedule: Q01DX009 (ip), vehicle: Klucel (hydroxypropylcellulose) (HPC)
  T/C: 96 % of control
[3]
  T/C: 96 % of control
[4]
  T/C: 86 % of control

## Nc1nc(N)c2cc(CNc3ccc(C(=O)NC(CC(=O)O)C(=O)O)cc3)ccc2n1 (stereo not given)
dose: 0.11 mg/kg/injection, schedule: Q01DX009 (ip), vehicle: saline
  T/C: 112 % of control
dose: 0.38 mg/kg/injection, schedule: Q01DX009 (ip), vehicle: saline
  T/C: 154 % of control
dose: 0.5 mg/kg/injection, schedule: Q01DX009 (ip), vehicle: saline
  T/C: 183 % of control
dose: 1.0 mg/kg/injection, schedule: Q04DX003 (ip), vehicle: saline sonified
  T/C: 213 % of control
dose: 2.0 mg/kg/injection, schedule: Q04DX003 (ip), vehicle: saline sonified
  T/C: 204 % of control
dose: 5.5 mg/kg/injection, schedule: Q04DX003 (ip), vehicle: saline sonified
  T/C: 161 % of control
dose: 6.25 mg/kg/injection, schedule: Q01DX009 (ip), vehicle: saline
  T/C: 95 % of control
dose: 8.25 mg/kg/injection, schedule: Q04DX003 (ip), vehicle: saline sonified
  T/C: 177 % of control
dose: 25.0 mg/kg/injection, schedule: Q04DX003 (ip), vehicle: saline sonified
  T/C: 96 % of control

## CC1(C)N=C(N)N=C(N)N1c1ccc(CCc2ccccc2)c(Cl)c1
[2]
  T/C: 122 % of control

## CC1(C)CC(=O)NN1C(=O)c1ccccc1
dose: 100.0 mg/kg/injection, schedule: Q04DX003 (ip), vehicle: saline with Tween-80
  T/C: 100 % of control
dose: 200.0 mg/kg/injection, schedule: Q04DX003 (ip), vehicle: saline with Tween-80
  T/C: 105 % of control
dose: 400.0 mg/kg/injection, schedule: Q04DX003 (ip), vehicle: saline with Tween-80
  T/C: 95 % of control

## CC(=O)[C@H]1CC[C@H]2[C@@H]3CCC4=CC(=O)[C@H](C)C[C@]4(C)[C@H]3C(=O)C[C@]12C
dose: 100.0 mg/kg/injection, schedule: Q01DX009 (ip), vehicle: saline with Tween-80
  T/C: 90 % of control
dose: 200.0 mg/kg/injection, schedule: Q01DX009 (ip), vehicle: saline with Tween-80
  T/C: 95 % of control

## COC(=O)C(C)CN1CCCCC1 (stereo not given)
[5]
  T/C: 105 % of control
[6]
  T/C: 110 % of control
[7]
  T/C: 110 % of control

## OCc1cncc(F)c1
[5]
  T/C: 103 % of control
[6]
  T/C: 103 % of control
[7]
  T/C: 103 % of control
